In patent publication US5204364A, “N-imidazolyl- and N-imidazolylmethyl-derivatives of substituted bicyclic compounds” (Farmitalia Carlo Erba, S.r.l., priority 1988, dated 1993) one finds IC50 and LD50 data, which are given here for 6 compounds.

As a reminder, the IC50 is the point on the concentration scale where inhibition reaches its midpoint. One may read the LD50 as the dose at which mortality reaches 50%.

Like-named read-outs stand apart in the source and are kept apart here.

One data set concerns TxA2 synthase. The experiment in a line: TxB2 synthesis (TxA2 synthase activity) in whole blood of normal rats during clotting, in vitro. In kind it is cell-based, rat (Sprague Dawley). The note with it: Rattus norvegicus, read-out: In vitro effect on TxB2 synthesis in normal rats, IC50. The procedure:
The compounds of formula (I) were for example tested for their ability to inhibit TxA2 synthase activity (as reflected by TxB2 generated in whole blood during clotting) in vitro in the rat.
The effect of a representative group of compounds according to the present invention on TxB2 synthesis was evaluated in comparison with known products in whole blood of normal Sprague Dawley rats (Charles River Italy). Blood was withdrawn from the abdominal aorta of the animals under light ether anaesthesia. The blood was immediately divided in portions of 0.5 ml and distributed in glass tubes each containing a concentration of the test compound, or of the reference compounds.
Samples were then allowed to clot for 1 hour at 37° C., centrifuged at 3000 rpm for 10 min, serum collected and stored at -20° C. until assayed.

Data set [1] is described as follows: orientative acute toxicity, single oral administration. The note with it: in vivo, fasted mice and rats, assessed on the seventh day. The procedure:
The toxicity of the compounds of the invention is negligible, therefore they can be safely used in therapy. Mice and rats which had been deprived of food for nine hours were treated orally with single administrations of increasing doses of compounds of the invention, then housed and normally fed. The orientative acute toxicity (LD50) was assessed on the seventh day after the treatment and e.g. in the compound added as FCE 26572, was higher than 800 mg/kg.

Where [2] appears, read: whole blood, clotted 1 hour at 37° C., TxB2 by RIA, limits for p = 0.95.

With `CC(=O)Oc1ccccc1C(=O)O` [ASA, Acetyl salicyclic acid, reference compound], the concentration for half-maximal inhibition (IC50) with TxA2 synthase (1 h) is 31000 nM. For the compound `O=C(O)c1ccc2c(c1)C=C(n1ccnc1)CC2` [FCE 22178, 5,6dihydro-7-(1H-imidazol-1-yl)-2-naphthalenecarboxylic acid, reference compound], in the data set with TxA2 synthase (setting [2]), the half-maximal inhibitory concentration (IC50) came to 1000 nM. Take `CC1=C(n2ccnc2)CCc2ccc(C(=O)O)cc21` [FCE 25672, 5,6-dihydro-7-(1H-imidazol-1-yl)-8-methyl-2-naphthalenecarboxylic acid]: the 50% inhibitory concentration (IC50) in the data set with TxA2 synthase (setting [2]) is 290 nM. Still for that read-out and setting: the value for `C=C1c2cc(C(=O)O)ccc2CCC1n1ccnc1` (stereo not drawn) [FCE 26252, 5,6,7,8-tetrahydro-7-(1H-imidazol-1-yl)-8-methylene-2-naphthalenecarboxylic acid] was 740 nM; that for `CC1=C(Cn2ccnc2)CCc2ccc(C(=O)O)cc21` [FCE 26333, 5,6-dihydro-7-(1H-imidazol-1-ylmethyl)-8-methyl-2-naphthalenecarboxylic acid] was 43 nM. `CC1=C(n2ccnc2)CCc2ccc(C(=O)O)cc21` [FCE 26572]: the LD50 at 168 h in data set [1] was over 800 mg/kg.
